Experimental data from patent EP4603105A1, “PHARMACEUTICAL COMPOSITION CONTAINING CYCLIC COMPOUND HAVING SELECTIVE KRAS INHIBITORY EFFECT AGAINST HRAS AND NRAS” (CHUGAI SEIYAKU KABUSHIKI KAISHA, priority 2022, dated 2024).
pIC50, pKd: −log10 of the molar value.

Legend:
[1] = target: GDP-bound KRAS wild-type protein (Homo sapiens, UniProt P01116); assay: Binding to KRAS by surface plasmon resonance (SPR), dissociation constant KD; settings: 1:1 binding model
Outline: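 Affinity is measured by surface plasmon resonance at 30°C against captured, GDP-loaded RAS carrying a biotinylated Avi tag. Compounds are titrated by single-cycle kinetics, and KD comes from a 1:1 fit.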

[2] = target: GDP-bound NRAS wild-type protein (Homo sapiens, UniProt P01111); assay: Binding to NRAS by surface plasmon resonance (SPR), KD and KD ratio to KRAS
Outline: (§1)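 Compound binding is evaluated by SPR single-cycle kinetics, with concentrations added intermittently from low to high for 75 s each. Target surfaces carry GDP-loaded biotinylated Avi-RAS at about 100–300 RU, regenerated after each cycle; temperature 30°C. A 1:1 binding model gives KD.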

HRAS wild-type protein = HRAS wild-type protein (Homo sapiens, UniProt P01112); assay: Binding to HRAS by surface plasmon resonance (SPR), KD and KD ratio to KRAS
Outline: as §1

[3] = tested on: human lung cancer strain NCI-H441; format: cell-based
Outline: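 Proliferation was scored by […] measured after the reagent was added to cultures kept at 37°C in 5% carbon dioxide.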

[4] = ratio of the KD value with respect to GDP-bound NRAS wild-type protein to the KD value with respect to KRAS
[5] = ratio of the KD value with respect to HRAS wild-type protein to the KD value with respect to KRAS
[6] = ratio of KD for GDP-bound NRAS wild-type protein to KD for KRAS
[7] = ratio of KD for HRAS wild-type protein to KD for KRAS

Chain of HRAS wild-type protein (P01112 whole entry): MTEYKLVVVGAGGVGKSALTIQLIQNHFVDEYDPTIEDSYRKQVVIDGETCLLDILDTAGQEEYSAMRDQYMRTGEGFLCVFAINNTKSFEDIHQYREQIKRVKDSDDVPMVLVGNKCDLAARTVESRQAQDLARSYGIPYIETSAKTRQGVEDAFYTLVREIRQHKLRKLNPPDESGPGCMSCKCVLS
Chain of GDP-bound KRAS wild-type protein (P01116 1-188 isoform P01116-2): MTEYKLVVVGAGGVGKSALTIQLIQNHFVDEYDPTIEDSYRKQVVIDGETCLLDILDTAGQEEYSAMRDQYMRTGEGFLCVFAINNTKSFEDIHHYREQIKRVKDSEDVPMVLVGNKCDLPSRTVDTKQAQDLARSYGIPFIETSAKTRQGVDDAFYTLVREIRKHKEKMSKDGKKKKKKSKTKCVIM
Chain of GDP-bound NRAS wild-type protein (P01111 whole entry): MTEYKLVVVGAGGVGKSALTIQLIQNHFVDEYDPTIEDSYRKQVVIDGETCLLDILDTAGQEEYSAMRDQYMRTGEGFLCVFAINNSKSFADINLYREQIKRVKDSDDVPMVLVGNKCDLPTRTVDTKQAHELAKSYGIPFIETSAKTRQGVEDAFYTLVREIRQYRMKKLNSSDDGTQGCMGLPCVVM

| SMILES | pKd ([1]; Single Cycle Kinetics) | NRAS /KRAS [2, 4] | HRAS /KRAS (HRAS wild-type protein; [5]) | pIC50 [3] | pKd [1] | NRAS /KRAS [2, 6] | HRAS /KRAS (HRAS wild-type protein; [7]) |
| --- | --- | --- | --- | --- | --- | --- | --- |
| CCO[C@@H]1C[C@H]2C(=O)NC3(CCC3)C(=O)N(C)[C@@H](C3CCCC3)C(=O)N(C)[C@H](C(=O)N(C)C)CC(=O)N(C)[C@@H](CCOC)C(=O)N[C@@H]([C@@H](C)CC)C(=O)N(C)CC(=O)N(C)[C@H]3CCCCCN(C3=O)[C@@H](Cc3ccc(C(F)(F)F)cc3)C(=O)N(C)CC(=O)N[C@@H](CCc3cc(F)c(C(F)(F)F)c(F)c3)C(=O)N2C1 [PP0675] | 9.66 | B (a compound having 3 or more and less than 10 is denoted as B) | B (a compound having 3 or more and less than 10 is denoted as B) | 7.59 |  |  |  |
| CCO[C@@H]1C[C@H]2C(=O)NC3(CC(C)(C)C3)C(=O)N(C)[C@@H](C3CCCC3)C(=O)N(C)[C@H](C(=O)N(C)C)CC(=O)N(C)[C@@H]([C@H](C)OC)C(=O)N[C@@H]([C@@H](C)CC)C(=O)N(C)CC(=O)N(C)[C@H]3C/C=C\CCN(C3=O)[C@@H](Cc3ccc(C)cc3)C(=O)N(C)CC(=O)N[C@@H](CCc3ccc(C(F)(F)F)c(OC)c3)C(=O)N2C1 [PP3185] |  |  |  | 7.79 | 9.92 | A (a compound having 10 or more and less than 20 is denoted as A) | A (a compound having 10 or more and less than 20 is denoted as A) |
| CC[C@H](C)[C@@H]1NC(=O)[C@H](CC)N(C)C(=O)C[C@@H](C(=O)N(C)C)N(C)C(=O)[C@H](C2CCCC2)N(C)C(=O)C2(CCC2)NC(=O)[C@@H]2CCN2C(=O)[C@H](CCc2cc(F)c(C(F)(F)F)c(F)c2)NC(=O)CN(C)C(=O)[C@H](Cc2ccc(C(F)(F)F)cc2)N2CCCCC[C@@H](C2=O)N(C)C(=O)CN(C)C1=O [PP0654] | 8.70 | B (a compound having 3 or more and less than 10 is denoted as B) | B (a compound having 3 or more and less than 10 is denoted as B) | 6.16 |  |  |  |
| CCCN(C)C(=O)[C@@H]1CC(=O)N(C)[C@@H](COCC)C(=O)N[C@@H]([C@@H](C)CC)C(=O)N(C)CC(=O)N(C)[C@H]2C/C=C\CCN(C2=O)[C@@H](Cc2ccc(C(F)(F)F)cc2)C(=O)N(C)CC(=O)N[C@@H](CCc2ccc(C(F)(F)F)c(OC)c2)C(=O)N2C[C@@H](C)C[C@H]2C(=O)NC2(CCC2)C(=O)N(C)[C@@H](C2CCCC2)C(=O)N1C [PP2025] | 10.21 | A (a compound having 10 or more and less than 20 is denoted as A) | B (a compound having 3 or more and less than 10 is denoted as B) | 7.87 |  |  |  |
| C#CC[C@H]1C(=O)N[C@@H]([C@@H](C)CC)C(=O)N(C)CC(=O)N(C)[C@H]2C/C=C\CCN(C2=O)[C@@H](Cc2ccc(C(F)(F)F)cc2)C(=O)N(C)CC(=O)N[C@@H](CCc2ccc(C(F)(F)F)c(OC)c2)C(=O)N2C[C@H](C)[C@H]2C(=O)NC2(CCC2)C(=O)N(C)[C@@H](C2CCCC2)C(=O)N(C)[C@H](C(=O)N2CCOCC2)CC(=O)N1C [PP3133] |  |  |  | 6.66 | 8.96 | A (a compound having 10 or more and less than 20 is denoted as A) | A (a compound having 10 or more and less than 20 is denoted as A) |
| CC[C@H](C)[C@@H]1NC(=O)[C@H](CC(C)C)N(C)C(=O)C[C@@H](C(=O)N(C)C)N(C)C(=O)[C@H](C2CCCC2)N(C)C(=O)C2(CCCC2)NC(=O)[C@@H]2C[C@@H](C)CN2C(=O)[C@H](CCc2cc(F)c(C(F)(F)F)c(F)c2)NC(=O)CN(C)C(=O)[C@H](Cc2ccc(C)cc2)N2CC/C=C\C[C@@H](C2=O)N(C)C(=O)CN(C)C1=O [PP2189] | 9.77 | A (a compound having 10 or more and less than 20 is denoted as A) | A (a compound having 10 or more and less than 20 is denoted as A) | 7.98 |  |  |  |
